The target in test [1] is T1, Prostaglandin G/H synthase 2 (Mus musculus, UniProt Q05769).
T1 sequence (Q05769 whole entry): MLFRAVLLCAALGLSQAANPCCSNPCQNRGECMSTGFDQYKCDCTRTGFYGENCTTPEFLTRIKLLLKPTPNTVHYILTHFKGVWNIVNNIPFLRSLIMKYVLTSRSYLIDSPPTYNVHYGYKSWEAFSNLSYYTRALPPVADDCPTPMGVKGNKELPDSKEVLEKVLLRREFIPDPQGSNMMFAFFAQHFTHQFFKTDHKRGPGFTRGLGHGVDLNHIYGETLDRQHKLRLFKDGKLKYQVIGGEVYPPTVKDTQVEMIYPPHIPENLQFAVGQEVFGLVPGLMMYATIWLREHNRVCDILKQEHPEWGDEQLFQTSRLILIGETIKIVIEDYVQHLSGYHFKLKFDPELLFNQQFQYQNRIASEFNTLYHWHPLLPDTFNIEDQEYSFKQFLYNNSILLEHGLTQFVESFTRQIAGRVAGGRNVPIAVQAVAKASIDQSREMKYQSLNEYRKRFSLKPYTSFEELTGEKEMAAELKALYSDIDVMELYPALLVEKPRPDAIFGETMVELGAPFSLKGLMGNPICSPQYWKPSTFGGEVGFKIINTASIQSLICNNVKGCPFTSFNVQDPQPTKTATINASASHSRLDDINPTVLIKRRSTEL
Description: Inhibitory activity against murine Prostaglandin G/H synthase 2.

For test [2], the target named is T2, Prostaglandin G/H synthase 1 (Mus musculus, UniProt P22437).
T2 sequence (P22437 whole entry): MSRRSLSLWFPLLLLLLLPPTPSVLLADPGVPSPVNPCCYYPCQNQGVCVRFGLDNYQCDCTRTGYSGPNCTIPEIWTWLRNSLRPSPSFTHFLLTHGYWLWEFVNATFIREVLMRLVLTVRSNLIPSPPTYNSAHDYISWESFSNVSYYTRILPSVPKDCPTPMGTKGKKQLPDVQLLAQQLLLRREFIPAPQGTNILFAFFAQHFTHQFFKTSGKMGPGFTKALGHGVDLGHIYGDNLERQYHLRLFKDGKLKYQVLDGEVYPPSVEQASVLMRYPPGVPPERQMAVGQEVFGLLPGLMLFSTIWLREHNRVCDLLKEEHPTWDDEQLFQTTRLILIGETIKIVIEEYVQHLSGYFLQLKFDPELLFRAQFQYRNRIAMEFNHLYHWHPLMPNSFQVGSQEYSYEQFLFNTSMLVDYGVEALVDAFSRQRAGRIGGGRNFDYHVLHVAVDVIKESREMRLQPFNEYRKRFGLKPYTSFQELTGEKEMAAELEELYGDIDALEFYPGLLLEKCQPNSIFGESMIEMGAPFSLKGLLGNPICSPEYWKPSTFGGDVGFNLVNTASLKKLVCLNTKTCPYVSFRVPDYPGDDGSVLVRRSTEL
Description: Inhibitory activity against Prostaglandin G/H synthase 1 in mice.

For test [3], the target named is T3, Polyunsaturated fatty acid 5-lipoxygenase (Mus musculus, UniProt P48999).
T3 sequence (P48999 whole entry): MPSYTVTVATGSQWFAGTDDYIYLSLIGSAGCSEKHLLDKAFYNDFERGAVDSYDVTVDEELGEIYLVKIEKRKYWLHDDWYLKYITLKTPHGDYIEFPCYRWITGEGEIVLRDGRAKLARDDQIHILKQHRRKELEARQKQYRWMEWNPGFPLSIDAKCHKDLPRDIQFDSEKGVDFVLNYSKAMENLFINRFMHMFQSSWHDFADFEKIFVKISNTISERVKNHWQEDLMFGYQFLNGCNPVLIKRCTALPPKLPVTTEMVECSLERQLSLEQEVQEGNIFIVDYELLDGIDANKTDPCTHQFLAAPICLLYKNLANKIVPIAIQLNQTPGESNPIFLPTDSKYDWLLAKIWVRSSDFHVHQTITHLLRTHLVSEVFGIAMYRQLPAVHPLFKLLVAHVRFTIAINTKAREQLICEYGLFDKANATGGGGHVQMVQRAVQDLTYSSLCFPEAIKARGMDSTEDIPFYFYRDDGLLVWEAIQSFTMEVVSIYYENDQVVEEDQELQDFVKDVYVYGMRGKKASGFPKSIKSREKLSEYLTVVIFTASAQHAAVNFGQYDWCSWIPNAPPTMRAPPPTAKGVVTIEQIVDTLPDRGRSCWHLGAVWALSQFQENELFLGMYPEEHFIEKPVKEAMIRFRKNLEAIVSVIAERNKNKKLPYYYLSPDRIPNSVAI
Description: Inhibitory activity against murine […].

Test [4] has as its target T2, Prostaglandin G/H synthase 1. Description: Inhibitory activity against murine prostaglandin G/H synthase 1.
Test [5] concerns the target T1, Prostaglandin G/H synthase 2. Description: Inhibitory activity against cyclooxygenase-2 in micc.
Test [6] concerns the target T3, Polyunsaturated fatty acid 5-lipoxygenase. Description: Inhibitory activity against […] in mice.

This passage reports IC50 results from ChEMBL document CHEMBL1146736, “Simple aromatic compounds containing propenone moiety show considerable dual COX/5-LOX inhibitory activities” (Bioorg Med Chem Lett, 2004).

Molecules are shown by their SMILES.

The IC50 is the concentration at which inhibition is half-maximal. Lower therefore signals higher potency.

As for `O=C(/C=C/c1ccco1)c1cccnc1`, the IC50 worked out at 12 µM in test [1], 59.7 µM in test [2] and 12 µM in test [3].

Regarding `O=C(/C=C/c1cccs1)c1cccs1`, the IC50 in test [1] was 3.4 µM; in test [4], 9.01 µM; in test [3], 4.8 µM.

Take `Cc1ccsc1/C=C/C(=O)c1ccccn1`: the IC50 in test [1] was 23.4 µM; in test [4], 40.1 µM; in test [3] it was 6.51 µM.

Turning to `O=C(/C=C/c1ccsc1)c1ccccn1`, the IC50 came to 5.22 µM in test [1], 13 µM in test [4] and 7.6 µM in test [3].

As for `O=C(/C=C/c1ccco1)c1ccccn1`, the IC50 in test [1] stood at 7.44 µM; in test [4], 23.6 µM; in test [3], 13.5 µM.

Turning to `O=C(/C=C/c1ccsc1)c1cccs1`, the IC50 in test [1] stood at 26.7 µM; in test [4], 59.9 µM; in test [3] it was 5.9 µM.

Regarding `O=C(/C=C/c1ccccc1)c1ccccc1` [CHALCONE], the values for the IC50 in test [1], in test [4] and in test [3] were 11.2 µM, 22.1 µM and 12.2 µM, respectively.

As for `O=C(/C=C/c1ccco1)c1ccc(Cl)s1`, the IC50 stood at 14.1 µM in test [1], 57.4 µM in test [4] and 7.52 µM in test [3].

For the compound `CC1=C(C)C(=O)C(CCCCC#CCCCC#CCO)=C(C)C1=O` [DOCEBENONE], the IC50 in test [3] worked out at 0.032 µM.

Turning to `O=C(/C=C/c1ccoc1)c1cccnc1`, the half-maximal inhibitory concentration (IC50) in test [1] worked out at 7.92 µM; in test [4] it was 21 µM; in test [3] it was 13.4 µM.

With `O=C(/C=C/c1ccccn1)c1ccco1`, the IC50 in test [1] came to 1.89 µM; in test [4] it was 65.3 µM; in test [3], 0.37 µM.

Regarding `O=C(/C=C/c1ccoc1)c1ccccn1`, the IC50 came to 23.6 µM in test [4], 12 µM in test [5] and 13.8 µM in test [3].

Take `O=C(/C=C/c1cccs1)c1ccccc1`: the results for the IC50 in test [1], in test [4] and in test [3] were 9.02 µM, 46.2 µM and 9.5 µM, respectively.

On to `O=C(/C=C/c1ccco1)c1ccco1`, for which the IC50 in test [1] was 29 µM; in test [4], 80.7 µM; in test [3], 12.8 µM.

In the case of `O=C(/C=C/c1ccsc1)c1cccnc1`, the IC50 was 18.4 µM in test [1], 13 µM in test [4] and 10 µM in test [6].

For the compound `O=C(/C=C/c1ccco1)c1cccs1`, the IC50 is 13.7 µM in test [1], 60.7 µM in test [4] and 14 µM in test [3].

As to `O=C(/C=C/c1ccccc1)c1ccccn1`, the IC50 in test [1] was 28.7 µM; in test [4], 32.5 µM; in test [3], 8.13 µM.

`CS(=O)(=O)Nc1ccc([N+](=O)[O-])cc1OC1CCCCC1` [NS-398]: in test [4], the IC50 was found to be 1.67 µM.
